Measurements as given in PubChem BioAssay (NCI).
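Cultured in 96-well plates, cells were exposed to test compound for 48 hours across five concentrations. Here, GI50 denotes the concentration required for 50% inhibition of growth. TGI: concentration producing complete growth inhibition.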

Columns and labels:
Test in all cases: growth of human tumour cells (NCI), 48 h
BT-549 breast = tested on: BT-549 breast
EKVX NSCLC = tested on: EKVX NSCLC
HCT-15 colon = tested on: HCT-15 colon
HT29 colon = tested on: HT29 colon
MDA-MB-231 breast = tested on: MDA-MB-231 breast
NCI-H226 lung = tested on: NCI-H226 lung
PC-3 prostate = tested on: PC-3 prostate
RPMI-8226 leukemia = tested on: RPMI-8226 leukemia
SR leukemia = tested on: SR leukemia
UO-31 renal = tested on: UO-31 renal

| Structure (SMILES) | GI50 (BT-549 breast) [µM] | TGI (BT-549 breast) [µM] | GI50 (EKVX NSCLC) [µM] | TGI (EKVX NSCLC) [µM] | GI50 (HCT-15 colon) [µM] | TGI (HCT-15 colon) [µM] | GI50 (HT29 colon) [µM] | TGI (HT29 colon) [µM] | GI50 (MDA-MB-231 breast) [µM] | TGI (MDA-MB-231 breast) [µM] | GI50 (NCI-H226 lung) [µM] | TGI (NCI-H226 lung) [µM] | GI50 (PC-3 prostate) [µM] | TGI (PC-3 prostate) [µM] | GI50 (RPMI-8226 leukemia) [µM] | TGI (RPMI-8226 leukemia) [µM] | GI50 (SR leukemia) [µM] | TGI (SR leukemia) [µM] | GI50 (UO-31 renal) [µM] | TGI (UO-31 renal) [µM] |
| --- | --- | --- | --- | --- | --- | --- | --- | --- | --- | --- | --- | --- | --- | --- | --- | --- | --- | --- | --- | --- |
| CCOC(=O)C1=C(C)NC(C)=C(C(=O)OCC)C1c1cc(Br)c(O)c(OC)c1 | 2.8 | 10.6 | 7.65 | 34.4 | 3.65 | 14.2 | 4.72 | 18.2 | 6.15 | 20.4 | 2.77 | 12.4 | 3.62 | 27.2 | 4.52 | 41.4 | 2.01 | 21.2 | 4.55 | 25.2 |
| C=C1C(=O)O[C@H]2[C@H]1CC/C(COC(=O)c1cccc3ccccc13)=C\CC[C@@]1(C)O[C@@H]21 | 1.05 | 2.37 | 1.81 | 3.94 | 1.19 | 2.89 | 0.696 | 2.42 | 1.69 | 3.68 | 1.29 | 2.83 | 1.57 | 3.14 | 1.35 | 4.54 | 0.363 | > 100 | 1.44 | 2.76 |
| COc1ccc(-c2nnc(Nc3nc(O)c(C4=c5cc(OC(F)(F)F)ccc5=NC4=O)s3)o2)cc1 | 19.7 | 37.7 | 31.6 | 71.7 | 20.4 | 80.4 | 71.4 | > 100 | 13.9 | 30.3 | 17.4 | 38.1 | 19.9 | 57.5 | 14.2 | 37.2 | 9 | 34.2 | 21.9 | 54.3 |
| O=Cc1c[nH]c2ccc(-c3csc4ccccc34)cc12 | 2.5 | 8.75 | 2.75 | > 100 | 2.98 | > 100 | 3.34 | > 100 | 6.28 | > 100 | 3.7 | > 100 | 3.02 | > 100 | 1.54 | 7.49 | 1.12 | 10.9 | 8.04 | > 100 |
| COc1ccc(C2=NNC(c3cc(Cc4ccc(O)c(C5CC(c6ccc(OC)cc6)=NN5)c4)ccc3O)C2)cc1 (stereo not given) | 4.66 | 51.6 | 23.3 | > 100 | 3.64 | > 100 | 32.2 | > 100 | 14.3 | 83.1 | 6.08 | > 100 | 61.4 | > 100 | 9.89 | > 100 | 16.4 | > 100 | 4.29 | > 100 |
| CCc1ccc(Oc2nccc(-c3c(-c4ccc(F)cc4)ncn3C3CCNCC3)n2)cc1 | 5.55 | 13.1 | 7.2 | 14.2 | 6.35 | 15.8 | 3.84 | 8.15 | 5.16 | 13.6 | 6.81 | 16.3 | 5.33 | 14.1 | 5.77 | 14.9 | 7.25 | 18.1 | 3.63 | 9.5 |
| Nc1cccc2c1CN(C1CCC(=O)NC1=O)C2=O (stereo not given) | > 100 | > 100 | > 100 | > 100 | > 100 | > 100 | > 100 | > 100 | > 100 | > 100 | > 100 | > 100 | > 100 | > 100 | > 100 | > 100 | > 100 | > 100 | > 100 | > 100 |
| O=C1c2cccc3cccc(c23)C(=O)N1CC#Cc1ccc2c3c(cccc13)C(=O)N(CCN1CCNCC1)C2=O | 9.51 | 34.4 | 15.7 | 39.7 | 14.9 | > 100 | 2 | 3.96 | 1.85 | 3.67 | 20.3 | 52.3 | 3.22 | 11.6 | 2.12 | 4.49 | 1.98 | 4.78 | 20.6 | 84.8 |
| NC(Cn1ccc(=O)c(O)c1)C(=O)O (stereo not given) | – | > 100 | – | > 100 | – | > 100 | – | > 100 | – | > 100 | – | > 100 | – | > 100 | – | > 100 | – | > 100 | – | > 100 |
| Cc1ccc2c(n1)C(=O)C(Cl)=C(Nc1ccc(N3CCN(C)CC3)cc1)C2=O | 1.61 | 2.97 | 1.73 | 3.12 | 1.84 | 3.93 | 2.19 | 4.92 | 1.73 | 3.19 | 1.77 | 3.38 | 1.57 | 3.16 | 2.68 | 7.28 | 2.78 | 9.06 | 1.63 | 2.98 |
| COc1ccc(Oc2nc(Nc3ccc(N4CCOCC4)cc3)ncc2NC(=O)Nc2cc(OC)cc(OC)c2)cc1 | 1.59 | 7.98 | 7.56 | > 33.3 | 15.4 | > 33.3 | 1.42 | 6.69 | 0.992 | 3.33 | 3.84 | 11.8 | 2.39 | 14.2 | 5.21 | 32.6 | 6.76 | > 33.3 | 5.33 | 24.8 |
| S=C(Nc1ccc(Cl)cc1)SC1CCCCC1 | – | > 100 | – | 47 | – | 69.4 | – | 50.9 | – | > 100 | – | > 100 | – | > 100 | – | > 100 | – | > 100 | – | > 100 |
| Oc1[nH]c2ccc(Cl)cc2c1/C=c1/ccc2c(c1)N=C(c1ccc(C(F)(F)F)cc1)N=2 | 1.87 | 4.75 | 3.16 | 18.3 | 2.64 | 8.91 | 1.78 | 3.94 | 1.75 | 3.63 | 3.13 | 11.6 | 2.29 | 7.58 | 2.21 | 5.44 | 2.43 | 5.38 | 2.56 | 9.81 |
